Assay results reported in publication PMC7026589, “Sensitive CometChip assay for screening potentially carcinogenic DNA adducts by trapping DNA repair intermediates” (Nucleic Acids Research, 2019).
Where two headings read alike, the source gives them in different places.

Legend:
[1] = system: HepaRG™ cells
Text: Cryopreserved HepaRG™ (HPRGC10), a terminally differentiated hepatic cell line, was purchased from ThermoFisher Scientific (Waltham, MA). HepaRG™ was thawed and cultured according to manufacturer's instructions. Briefly, the general purpose working medium was WEM supplemented with 1X GlutaMAX™ and 1X HepaRG™ Thaw, Plate, & General Purpose Medium Supplement. The metabolism working medium was WEM supplemented with 1X GlutaMAX™ and HepaRG™ Maintenance/Metabolism Medium Supplement. HepaRG™ cells were thawed in the general purpose working medium and plated in a 96-well plate coated with collagen I at 100 000 cells/well. One day after plating, the general purpose working medium was changed to the metabolism working medium. The metabolism working medium was renewed on day 4 and day 6 after plating. On day 7, the cells were treated in the metabolism working medium.
To load cells into microwells, ∼2000–200 000 cells in suspension were placed into each macrowell, and the chip was incubated at 37°C in the presence of 5% CO2 for 15 min. Cell were loaded into microwells by gravity, and excess cells were then washed off with PBS by shear force. The chip was covered with a layer of overlay agarose (1% w/v low-melting point agarose solution in PBS, kept molten at 43°C until use). For complete gelation of the overlay agarose, the chip was kept at room temperature for two minutes followed by 2 min at 4°C.
The alkaline comet assay was performed as previously ([15],[79]). Sodium chloride (NaCl, 7581), disodium EDTA (Na2EDTA, 4931), and sodium hydroxide pellets (NaOH, 7708) were purchased from VWR, Radnor, PA. Trizma® base (T1503), Trizma® HCl (T5941) and Triton X-100 (X-100) were obtained from MilliporeSigma, St. Louis, MO. 10 000× SYBR™ Gold nucleic acid gel stain was obtained from ThermoFisher Scientific, Waltham, MA.
The alkaline lysis buffer (pH ∼ 10) was a solution of 2.5 M NaCl, 100 mM Na2EDTA, 10 mM Trizma® base, and 1% (v/v) Triton X-100 dissolved in deionized H2O (dI H2O). […] The neutralization buffer (pH ∼ 7.5) was prepared by dissolving Trizma® HCl in distilled H2O to a final concentration of 0.4 M.
(§1) Cells encapsulated in CometChip were lysed in the alkaline lysis buffer overnight at 4°C. The nuclei were unwound in the alkaline unwinding buffer for 40 min at 4°C, and the DNA was electrophoresed in the same buffer at the same temperature for 30 min at 1 V/cm and ∼300 mA. The CometChip was then washed three times in neutralization buffer by submerging for 5 min each time.
(§2) The DNA on CometChip was stained for 15 min at room temperature with 1× of SYBR™ Gold diluted in PBS, protected from light. Fluorescent images of the comets were captured at 40× magnification using an epifluorescence microscope (Nikon Eclipse 80i, Nikon Instruments, Inc., Melville, NY, USA) with a 480 nm excitation filter. Image acquisition was achieved by automatic scanning using a motorized XY stage. Comet images were automatically analyzed using Guicometanalyzer, a custom software developed in MATLAB (The MathWorks Inc., Natick, MA, USA) as previously described ([15]). For each condition, 100 comets or more were analysed. Outputs from Guicometanalyzer were processed and imported to a spreadsheet (Microsoft Excel, Microsoft Office Suite 2016) using Comet2Excel, an in-house software developed in Python (Python Software Foundation, Python version 2.7.10). Software is freely available upon request.
For this experiment, the comets were analysed using Trevigen® Comet Analysis Software.
A vehicle control condition was included by diluting DMSO in cell culture medium to get a final concentration of 0.5%. Cells were incubated with the test compound for 24 h at 37°C in the presence of 5% CO2.
HepaRG™ were incubated with the test compound for 24 h at 37°C in the presence of 5% CO2. A vehicle control (1% DMSO) was included.

[2] = system: Xpa−/− mouse hepatocytes; conditions: presence of HU/AraC, 24 h, compared with WT
Procedure: as §1
as §2, with “Outputs from Guicometanalyzer were processed and imported to a spreadsheet (Microsoft Excel, Microsoft Office Suite 2016) using Comet2Excel, an in-house software developed in Python (Python Software Foundation, Python version 2.7.10). Software is freely available upon request.” left out
(§3) Primary mouse hepatocytes were obtained from 10 to 14 weeks old C57Bl6 mice using a standard two-step collagenase liver perfusion procedure with minor changes ([80],[81]). […] Cell viability and cell number were analyzed using an automated Trypan Blue exclusion system [Vi-CELL™ cell counter (Beckman Coulter Life Sciences, Brea, CA)]. […]

[3] = system: primary mouse hepatocytes; conditions: WT primary mouse hepatocytes; absence of HU/AraC; 24 h
Procedure: as §1
as §2, with “Outputs from Guicometanalyzer were processed and imported to a spreadsheet (Microsoft Excel, Microsoft Office Suite 2016) using Comet2Excel, an in-house software developed in Python (Python Software Foundation, Python version 2.7.10). Software is freely available upon request.” left out
as §3

[4] = biological target: T1, CYP1A2 (Homo sapiens, UniProt P05177); type: cell-based; design: endogenous in cells; conditions: HepaRG; B[a]P 24 h
T1 sequence (P05177 whole entry): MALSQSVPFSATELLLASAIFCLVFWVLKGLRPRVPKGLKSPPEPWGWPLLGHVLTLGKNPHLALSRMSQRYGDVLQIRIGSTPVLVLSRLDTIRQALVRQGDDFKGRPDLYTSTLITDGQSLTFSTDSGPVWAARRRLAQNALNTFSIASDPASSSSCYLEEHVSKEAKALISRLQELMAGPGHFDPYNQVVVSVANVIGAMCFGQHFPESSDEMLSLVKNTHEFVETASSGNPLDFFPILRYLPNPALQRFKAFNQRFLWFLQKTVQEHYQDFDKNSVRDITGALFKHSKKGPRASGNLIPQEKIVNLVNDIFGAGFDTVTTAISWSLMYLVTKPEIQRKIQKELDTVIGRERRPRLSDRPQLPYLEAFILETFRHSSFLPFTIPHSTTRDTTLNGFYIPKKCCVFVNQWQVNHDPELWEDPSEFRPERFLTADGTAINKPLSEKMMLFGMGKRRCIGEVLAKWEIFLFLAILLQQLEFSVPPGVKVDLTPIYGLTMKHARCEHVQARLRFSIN
Procedure: (§4) The CYP450-Glo™ CYP3A4 assay with luciferin-IPA (V9001) and the CYP450-Glo™ CYP1A2 assay with luciferin-1A2 (V8421) were purchased from Promega, Madison, WI. The activity levels of CYP3A4 and CYP1A2 in cells were measured according to the manufacturer's protocol for non-lytic cell-based assays. Luminescent signals were recorded using a SpectraMax M2e microplate reader (Molecular Devices, Sunnyvale, CA, USA). Control wells with no cells were included to obtain background luminescence. The net signal for each sample was obtained by subtracting the background luminescence value.
(§5) CYP3A4 or CYP1A2 activity per cell can be obtained by normalizing CYP450-Glo™ values with cell numbers. After a sample was analyzed for CYP3A4 or CYP1A2 activity, the CTG® assay was performed to obtain an estimate of the number of viable cells in the sample. The result from CYP450-Glo™ was then divided by the CTG® value to obtain the average CYP3A4 or CYP1A2 activity per cell.

[5] = biological target: T1, CYP1A2; type: cell-based; design: endogenous in cells; host or cells: HepG2; conditions: HepG2; B[a]P 24 h
Procedure: as §4, §5

For `c1ccc2c(c1)cc1ccc3cccc4ccc2c1c34` [B[a]P, Benzo[a]pyrene], the “Genotoxicity Alkaline CometChip HepaRG (+ HU + AraC) +/−” value [1] was “+”, the “Genotoxicity Alkaline CometChip HepaRG +/−” value [1] was “−” and the “SSBs” value [2] was “not significantly”. For the same compound, the “SSBs” value [3] was “significant, but relatively small, increase in SSBs”, the “CYP1A2 activity level (induction)” value [4] was “induced in a dose-dependent manner” and the “CYP1A2 activity level (induction)” value [5] was “induced in a dose-dependent manner”.
